From patent US12215116B2, “Arginase inhibitors and methods of use” (Merck Sharp & Dohme LLC, priority 2018, dated 2025)
Counter-ions that a name gives are not always drawn.

Biological target: T1, Arginase (ARG1 enzyme) (Homo sapiens, UniProt P05089)
T1 construct: made in house; host or cells: Escherichia coli
T1 sequence (P05089 1-322): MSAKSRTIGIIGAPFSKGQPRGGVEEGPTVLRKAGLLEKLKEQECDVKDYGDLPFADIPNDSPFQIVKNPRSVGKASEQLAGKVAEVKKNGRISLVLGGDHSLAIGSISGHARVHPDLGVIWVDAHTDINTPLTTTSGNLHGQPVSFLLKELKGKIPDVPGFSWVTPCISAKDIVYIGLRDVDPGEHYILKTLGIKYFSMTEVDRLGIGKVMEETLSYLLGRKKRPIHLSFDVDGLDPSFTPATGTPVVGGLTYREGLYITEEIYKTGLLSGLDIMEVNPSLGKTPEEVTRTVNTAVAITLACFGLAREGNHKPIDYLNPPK
Assay: Arginase Thioornithine Generating Assay (TOGA)
Format: biochemical
Details: 1.88 nM arginase, thioarginine substrate, fluorescence readout
Description: Arginase Thioornithine Generating Assay (TOGA)
Compounds were serially diluted in ten 3-fold steps in DMSO starting from 10 mM DMSO stocks. Compound dilutions or DMSO alone were then dispensed from the dilution plate into a Greiner black 384-well assay plate (catalog #781086) using an Echo 555 acoustic liquid handler (Labcyte).
Arginase protein was recombinantly expressed in Escherichia coli. Purified protein was then diluted in assay buffer (50 mM Tris pH 7.5, 50 mM NaCl, 1 mM manganese chloride, 0.05% bovine serum albumin to obtain a final Arginase concentration of 1.88 nM. Arginase solution (20 μL) or buffer alone (20 μL) were dispensed to wells of the assay plate using a BioRAPTR liquid dispenser (Beckman Coulter). Assay plates containing compound and ARG1 enzyme were incubated at room temperature for 30 minutes. Afterwards, 5 μL of 2.5 mM thioarginine (Cayman Chemicals) in assay buffer were added to each well of the assay plate using a BioRAPTR liquid dispenser. Plates were incubated at room temperature for 60 minutes and reactions were quenched by addition of 15 μL of […] 7-Diethylamine-3-(4-maleimidophenyl)-4-methylcoumarin (Sigma Chemical) in 70% ethanol. Plates were briefly shaken to mix and the fluorescence was measured in an Spectramax plate reader (Molecular Devices) with a 410 nm excitation wavelength and an 490 nm emission wavelength.
Potencies were calculated by […] to the four parameter logistic IC50 equation.
Compound `CC(C)(O)[C@@]1(CCCB(O)O)CN[C@@H]1C(=O)O` [Example 68, (2S,3S)-3-(3-boronopropyl)-3-(2-hydroxypropan-2-yl)azetidine-2-carboxylic acid] has an IC50 of 343 nM.
`C[C@@]1(CCCB(O)O)[C@H](O)CN[C@@H]1C(=O)O` [Example 69, (2S,3S,4S)-3-(3-boronopropyl)-4-hydroxy-3-methylpyrrolidine-2-carboxylic acid] gave an IC50 greater than 10000 nM.
`CC(C)[C@H](N)C(=O)N[C@H]1CN[C@H](C(=O)O)[C@]1(C)CCCB(O)O` [Example 70, (2S,3R,4R)-4-((S)-2-amino-3-methylbutanamido)-3-(3-boronopropyl)-3-methylpyrrolidine-2-carboxylic acid] gave an IC50 of 83 nM.
Work on `C[C@]1(CCCB(O)O)[C@@H](C(=O)O)NC[C@@H]1N` [Example 71, (2S,3R,4R)-4-amino-3-(3-boronopropyl)-3-methylpyrrolidine-2-carboxylic acid] yielded an IC50 of 17 nM.
`C[C@@]1(CCCB(O)O)CCN[C@]1(C)C(=O)O` [Example 72, (2S,3R)-3-(3-boronopropyl)-2,3-dimethylpyrrolidine-2-carboxylic acid] gave an IC50 of 119 nM.
With `C[C@H]1N[C@H](C(=O)O)[C@](C)(CCCB(O)O)[C@H]1O` [Example 74A, (2S,3S,4R,5R)-3-(3-boronopropyl)-4-hydroxy-3,5-dimethylpyrrolidine-2-carboxylic acid] the IC50 was 48.6 nM.
`C[C@H]1N[C@H](C(=O)O)[C@](C)(CCCB(O)O)[C@@H]1O` [Example 74B] gave an IC50 greater than 10000 nM.
Work on `CC1(C)N[C@H](C(=O)O)[C@](C)(CCCB(O)O)[C@@H]1O` [Example 75] yielded an IC50 greater than 10000 nM.
For `C[C@]1(CCCB(O)O)[C@@H](C(=O)O)NC[C@@H]1O` [Example 76, (2S,3S,4R)-3-(3-boronopropyl)-4-hydroxy-3-methylpyrrolidine-2-carboxylic acid], the IC50 was 17.7 nM.
`C[C@@]1(CCCB(O)O)[C@@H](CN)CN[C@@H]1C(=O)O` [Example 77, (2S,3R,4S)-4-(aminomethyl)-3-(3-boronopropyl)-3-methylpyrrolidine-2-carboxylic acid] showed an IC50 of 85 nM.
For `CN(C)C[C@H]1CN[C@H](C(=O)O)[C@]1(C)CCCB(O)O` [Example 78, (2S,3R,4R)-3-(3-boronopropyl)-4-((dimethylamino)methyl)-3-methylpyrrolidine-2-carboxylic acid], the IC50 was greater than 10000 nM.
In the case of `CNC[C@H]1CN[C@H](C(=O)O)[C@]1(C)CCCB(O)O` [Example 79], the IC50 is reported as 66.3 nM.
With `C[C@@]1(CCCB(O)O)[C@@H](CO)CN[C@@H]1C(=O)O` [Example 80, (2S,3R,4R)-3-(3-boronopropyl)-4-(hydroxymethyl)-3-methylpyrrolidine-2-carboxylic acid] the IC50 was 27.3 nM.
With `C[C@]1(CCCB(O)O)[C@@H](C(=O)O)NC[C@@H]1C(F)F` [Example 81, (2S,3R,4R)-3-(3-boronopropyl)-4-(difluoromethyl)-3-methylpyrrolidine-2-carboxylic acid] the IC50 was 139 nM.
With `O=C(O)[C@H]1NC[C@H](O)[C@@H]1CCCB(O)O` [Example 82, (2S,3R,4R)-3-(3-boronopropyl)-4-hydroxypyrrolidine-2-carboxylic acid] the IC50 was greater than 10000 nM.
Work on `O=C(O)[C@H]1NCC[C@@]1(CO)CCCB(O)O` [Example 83, (2S,3S)-3-(3-boronopropyl)-3-(hydroxymethyl)pyrrolidine-2-carboxylic acid] yielded an IC50 of 19.3 nM.
Compound `O=C(O)[C@H]1NCC[C@]1(CCCB(O)O)C(F)F` [Example 84, (2S,3S)-3-(3-boronopropyl)-3-(difluoromethyl)pyrrolidine-2-carboxylic acid] has an IC50 of 28.9 nM.
For `NC[C@@]1(CCCB(O)O)CCN[C@@H]1C(=O)O` [Example 85, (2S,3R)-3-(aminomethyl)-3-(3-boronopropyl)pyrrolidine-2-carboxylic acid], the IC50 was 7.18 nM.
In the case of `CN(C)C[C@@]1(CCCB(O)O)CCN[C@@H]1C(=O)O` [Example 86, (2S,3R)-3-(3-boronopropyl)-3-((dimethylamino)methyl)pyrrolidine-2-carboxylic acid], the IC50 is reported as 119 nM.
`CNC[C@@]1(CCCB(O)O)CCN[C@@H]1C(=O)O` [Example 87, (2S,3R)-3-(3-boronopropyl)-3-((methylamino)methyl)pyrrolidine-2-carboxylic acid] gave an IC50 of 7 nM.
`N#C[C@@]1(CCCB(O)O)CCN[C@@H]1C(=O)O` [Example 88, (2S,3S)-3-(3-boronopropyl)-3-cyanopyrrolidine-2-carboxylic acid] gave an IC50 of 13.4 nM.
`NC(=O)[C@@]1(CCCB(O)O)CCN[C@@H]1C(=O)O` [Example 89, (2S,3S)-3-(3-boronopropyl)-3-carbamoylpyrrolidine-2-carboxylic acid] showed an IC50 of 289 nM.
With `O=C(O)C[C@@]1(CCCB(O)O)[C@H](O)CN[C@@H]1C(=O)O` [Example 90, (2S,3R,4S)-3-(3-boronopropyl)-3-(carboxymethyl)-4-hydroxypyrrolidine-2-carboxylic acid] the IC50 was 2910 nM.
`O=C(O)[C@H]1NCC(CO)[C@H]1CCCB(O)O` (stereo partly drawn) [Example 91, (2S,3R)-3-(3-boronopropyl)-4-(hydroxymethyl)pyrrolidine-2-carboxylic acid] gave an IC50 of 20 nM.
`O=C(O)[C@H]1NC[C@@H](O)[C@@]1(F)CCCB(O)O` [Example 92A, (2R,3R,4R)-3-(3-boronopropyl)-3-fluoro-4-hydroxypyrrolidine-2-carboxylic acid] gave an IC50 greater than 10000 nM.
With `O=C(O)[C@H]1NC[C@H](O)[C@@]1(F)CCCB(O)O` [Example 92B, (2R,3R,4S)-3-(3-boronopropyl)-3-fluoro-4-hydroxypyrrolidine-2-carboxylic acid] the IC50 was 124 nM.
`O=C(O)[C@H]1NC[C@@H](O)[C@]1(F)CCCB(O)O` [Example 92C, (2R,3S,4R)-3-(3-boronopropyl)-3-fluoro-4-hydroxypyrrolidine-2-carboxylic acid] showed an IC50 greater than 10000 nM.
With `O=C(O)[C@H]1NCC[C@H]1SCCB(O)O` [Example 93, (2R,3R)-3-((2-boronoethyl)thio)pyrrolidine-2-carboxylic acid hydrochloride] the IC50 was 92.1 nM.
With `N[C@@]1(C(=O)O)CNC[C@@]1(CO)CCCB(O)O` [Example 94C] the IC50 was greater than 10000 nM.
`N[C@]1(C(=O)O)CNC[C@]1(CO)CCCB(O)O` [Example 94D] showed an IC50 greater than 10000 nM.

System: animal model of multiple sclerosis (experimental autoimmune encephalomyelitis)
Assay: not given
Details: cited from earlier work
For `N[C@@H](CCCCB(O)O)C(=O)O` [ABH, (S)-2-amino-6-boronohexanoic acid], the disease score is given as “improves the disease score”.

System: live male rabbits
Assay: not given
Details: cited from earlier work
In the case of `N[C@@H](CCCCB(O)O)C(=O)O` [ABH, (S)-2-amino-6-boronohexanoic acid], the erectile response is given as “enhances the erectile response”.

System: corpus cavernosum of the diabetic man
Assay: not given
Details: ex vivo; cited from earlier work
In the case of `N[C@@H](CCCCB(O)O)C(=O)O` [ABH, (S)-2-amino-6-boronohexanoic acid], the nitric oxide biosynthesis is given as “restores nitric oxide biosynthesis”.

System: live female rabbits
Assay: not given
Details: cited from earlier work
In the case of `N[C@@H](CCCCB(O)O)C(=O)O` [ABH, (S)-2-amino-6-boronohexanoic acid], the “engorgement response in the genitalia” value is listed as “enhances the engorgement response”.

System: rabbit and human penile corpus cavernosum
Assay: not given
Details: rabbit and human tissue; cited from earlier work
In the case of `N[C@@H](CCCCB(O)O)C(=O)O` [ABH, (S)-2-amino-6-boronohexanoic acid], the “nitric oxide-dependent relaxation of penile corpus cavernosum” value is listed as “enhances the nitric oxide-dependent relaxation of this tissue”.

System: guinea pigs
Assay: not given
Details: nebulizer treatment, allergic asthma model; cited from earlier work
For `N[C@@H](CCCCB(O)O)C(=O)O` [ABH, (S)-2-amino-6-boronohexanoic acid], the airway hyperresponsiveness is listed as “prevents airway hyperresponsiveness”.

System: opossum internal anal sphincter muscle
Assay: not given
Details: cited from earlier work
For `N[C@@H](CCCCB(O)O)C(=O)O` [ABH, (S)-2-amino-6-boronohexanoic acid], the “relaxation of internal anal sphincter muscle” value is listed as “relax this muscle”.
